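Five compound concentrations were applied to cells in 96-well plates for 48 hours; endpoints were derived by simple linear interpolation of the resulting dose-response curve. The concentration for full growth arrest is given as TGI.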
Legend:
Assay in all cases: NCI tumour cell line growth inhibition, 48 h
PC-3 prostate = system: PC-3 prostate
NCI-H226 lung = system: NCI-H226 lung
HS 578T breast = system: HS 578T breast
RPMI-8226 leukemia = system: RPMI-8226 leukemia
OVCAR-5 ovarian = system: OVCAR-5 ovarian
HCT-15 colon = system: HCT-15 colon
M14 melanoma = system: M14 melanoma
SK-MEL-2 melanoma = system: SK-MEL-2 melanoma
MCF7 breast = system: MCF7 breast
LOX IMVI melanoma = system: LOX IMVI melanoma
SW-620 colon = system: SW-620 colon
OVCAR-8 ovarian = system: OVCAR-8 ovarian
UACC-62 melanoma = system: UACC-62 melanoma
MDA-MB-435 = system: MDA-MB-435
TK-10 renal = system: TK-10 renal
HCC-2998 colon = system: HCC-2998 colon
RXF 393 renal = system: RXF 393 renal
ACHN renal = system: ACHN renal
SNB-75 CNS = system: SNB-75 CNS
SF-268 CNS = system: SF-268 CNS
EKVX NSCLC = system: EKVX NSCLC
SN12C renal = system: SN12C renal
UO-31 renal = system: UO-31 renal
T-47D breast = system: T-47D breast
SK-MEL-28 melanoma = system: SK-MEL-28 melanoma
BT-549 breast = system: BT-549 breast
NCI-H23 lung = system: NCI-H23 lung
U251 CNS = system: U251 CNS
K-562 leukemia = system: K-562 leukemia
SF-295 CNS = system: SF-295 CNS
HOP-62 NSCLC = system: HOP-62 NSCLC
OVCAR-3 ovarian = system: OVCAR-3 ovarian
KM12 colon = system: KM12 colon
MDA-N = system: MDA-N
SF-539 CNS = system: SF-539 CNS
MOLT-4 leukemia = system: MOLT-4 leukemia
DU-145 prostate = system: DU-145 prostate
SK-MEL-5 melanoma = system: SK-MEL-5 melanoma
IGROV1 ovarian = system: IGROV1 ovarian
MALME-3M melanoma = system: MALME-3M melanoma
SK-OV-3 ovarian = system: SK-OV-3 ovarian
A549 NSCLC = system: A549 NSCLC
A498 renal = system: A498 renal
UACC-257 melanoma = system: UACC-257 melanoma
HCT-116 colon = system: HCT-116 colon
786-0 renal = system: 786-0 renal
HOP-92 NSCLC = system: HOP-92 NSCLC
MDA-MB-231 breast = system: MDA-MB-231 breast
SR leukemia = system: SR leukemia
HL-60(TB) leukemia = system: HL-60(TB) leukemia
NCI-H460 lung = system: NCI-H460 lung
SNB-19 CNS = system: SNB-19 CNS
CCRF-CEM leukemia = system: CCRF-CEM leukemia
HT29 colon = system: HT29 colon
OVCAR-4 ovarian = system: OVCAR-4 ovarian
COLO 205 colon = system: COLO 205 colon
CAKI-1 renal = system: CAKI-1 renal
NCI/ADR-RES ovarian = system: NCI/ADR-RES ovarian
NCI-H522 lung = system: NCI-H522 lung

CC1CCC2C(C(=O)O[C@H]3C4CCO[C@@H](OC5OC(CO)C(O)C(O)C5O)C4[C@@]4(CO)O[C@@H]34)=CO[C@@H](OC3OC(CO)C(O)C(O)C3O)C12 (stereo not given in full)
TGI (PC-3 prostate): > 10 µM | TGI (NCI-H226 lung): > 10 µM | TGI (HS 578T breast): > 10 µM | TGI (RPMI-8226 leukemia): > 10 µM | TGI (OVCAR-5 ovarian): > 10 µM | TGI (HCT-15 colon): > 10 µM | TGI (M14 melanoma): > 10 µM | TGI (SK-MEL-2 melanoma): > 10 µM | TGI (MCF7 breast): > 10 µM | TGI (LOX IMVI melanoma): > 10 µM | TGI (SW-620 colon): > 10 µM | TGI (OVCAR-8 ovarian): > 10 µM | TGI (UACC-62 melanoma): > 10 µM | TGI (MDA-MB-435): > 10 µM | TGI (TK-10 renal): > 10 µM | TGI (HCC-2998 colon): > 10 µM | TGI (RXF 393 renal): > 10 µM | TGI (ACHN renal): > 10 µM | TGI (SNB-75 CNS): > 10 µM | TGI (SF-268 CNS): > 10 µM | TGI (EKVX NSCLC): > 10 µM | TGI (SN12C renal): > 10 µM | TGI (UO-31 renal): > 10 µM | TGI (T-47D breast): > 10 µM | TGI (SK-MEL-28 melanoma): > 10 µM | TGI (BT-549 breast): > 10 µM | TGI (NCI-H23 lung): > 10 µM | TGI (U251 CNS): > 10 µM | TGI (K-562 leukemia): > 10 µM | TGI (SF-295 CNS): > 10 µM | TGI (HOP-62 NSCLC): > 10 µM | TGI (OVCAR-3 ovarian): > 10 µM | TGI (KM12 colon): > 10 µM | TGI (MDA-N): > 10 µM | TGI (SF-539 CNS): > 10 µM | TGI (MOLT-4 leukemia): > 10 µM | TGI (DU-145 prostate): > 10 µM | TGI (SK-MEL-5 melanoma): > 10 µM | TGI (IGROV1 ovarian): > 10 µM | TGI (MALME-3M melanoma): > 10 µM | TGI (SK-OV-3 ovarian): > 10 µM | TGI (A549 NSCLC): > 10 µM | TGI (A498 renal): > 10 µM | TGI (UACC-257 melanoma): > 10 µM | TGI (HCT-116 colon): > 10 µM | TGI (786-0 renal): > 10 µM | TGI (HOP-92 NSCLC): > 10 µM | TGI (MDA-MB-231 breast): > 10 µM | TGI (SR leukemia): > 10 µM | TGI (HL-60(TB) leukemia): > 10 µM | TGI (NCI-H460 lung): > 10 µM | TGI (SNB-19 CNS): > 10 µM | TGI (CCRF-CEM leukemia): > 10 µM | TGI (HT29 colon): > 10 µM

CC(C)NC(=O)OCc1c(COC(=O)NC(C)C)n(C)c2c1ccc1ccccc12
TGI (PC-3 prostate): 17.1 µM | TGI (NCI-H226 lung): 5.43 µM | TGI (HS 578T breast): 7.12 µM | TGI (RPMI-8226 leukemia): 3.92 µM | TGI (OVCAR-5 ovarian): 7.43 µM | TGI (HCT-15 colon): 3.09 µM | TGI (OVCAR-4 ovarian): 9.19 µM | TGI (M14 melanoma): 3.2 µM | TGI (SK-MEL-2 melanoma): 4.09 µM | TGI (MCF7 breast): 1.88 µM | TGI (LOX IMVI melanoma): 2.6 µM | TGI (COLO 205 colon): 3.83 µM | TGI (SW-620 colon): 2.4 µM | TGI (OVCAR-8 ovarian): 4.5 µM | TGI (UACC-62 melanoma): 2.92 µM | TGI (CAKI-1 renal): 1.94 µM | TGI (MDA-MB-435): 4.9 µM | TGI (TK-10 renal): 3.04 µM | TGI (HCC-2998 colon): 9.86 µM | TGI (RXF 393 renal): 2.65 µM | TGI (ACHN renal): 2.82 µM | TGI (SNB-75 CNS): 7.11 µM | TGI (SF-268 CNS): 6.2 µM | TGI (EKVX NSCLC): 10.4 µM | TGI (SN12C renal): 5.3 µM | TGI (UO-31 renal): 4.09 µM | TGI (T-47D breast): 1.48 µM | TGI (SK-MEL-28 melanoma): 5.75 µM | TGI (BT-549 breast): 1.58 µM | TGI (NCI/ADR-RES ovarian): 7.39 µM | TGI (NCI-H23 lung): 3.17 µM | TGI (U251 CNS): 4.24 µM | TGI (K-562 leukemia): > 20 µM | TGI (SF-295 CNS): 17.2 µM | TGI (HOP-62 NSCLC): 16.2 µM | TGI (NCI-H522 lung): 0.298 µM | TGI (OVCAR-3 ovarian): 12.4 µM | TGI (KM12 colon): 15.5 µM | TGI (MDA-N): 4.22 µM | TGI (SF-539 CNS): 3.5 µM | TGI (MOLT-4 leukemia): > 25.4 µM | TGI (DU-145 prostate): 14.4 µM | TGI (SK-MEL-5 melanoma): 6.63 µM | TGI (IGROV1 ovarian): 3.23 µM | TGI (MALME-3M melanoma): 2.24 µM | TGI (SK-OV-3 ovarian): 22.2 µM | TGI (A549 NSCLC): 23.5 µM | TGI (A498 renal): 3.01 µM | TGI (UACC-257 melanoma): 2.99 µM | TGI (HCT-116 colon): 2.82 µM | TGI (786-0 renal): 2.5 µM | TGI (HOP-92 NSCLC): 2.6 µM | TGI (MDA-MB-231 breast): 3.6 µM | TGI (SR leukemia): > 100 µM | TGI (HL-60(TB) leukemia): 22.4 µM | TGI (NCI-H460 lung): 7.7 µM | TGI (SNB-19 CNS): 3.74 µM | TGI (HT29 colon): 13 µM

COc1ccc2[nH]c3c(c2c1)COc1ccccc1C3=O
TGI (PC-3 prostate): > 100 µM | TGI (NCI-H226 lung): > 100 µM | TGI (HS 578T breast): > 100 µM | TGI (RPMI-8226 leukemia): > 100 µM | TGI (OVCAR-5 ovarian): > 100 µM | TGI (HCT-15 colon): > 100 µM | TGI (OVCAR-4 ovarian): > 100 µM | TGI (M14 melanoma): > 100 µM | TGI (SK-MEL-2 melanoma): > 100 µM | TGI (MCF7 breast): > 100 µM | TGI (LOX IMVI melanoma): > 100 µM | TGI (COLO 205 colon): > 100 µM | TGI (SW-620 colon): > 100 µM | TGI (OVCAR-8 ovarian): > 100 µM | TGI (UACC-62 melanoma): > 100 µM | TGI (CAKI-1 renal): > 100 µM | TGI (MDA-MB-435): > 100 µM | TGI (TK-10 renal): > 100 µM | TGI (HCC-2998 colon): > 100 µM | TGI (ACHN renal): > 100 µM | TGI (SNB-75 CNS): > 100 µM | TGI (SF-268 CNS): > 100 µM | TGI (EKVX NSCLC): > 100 µM | TGI (SN12C renal): > 100 µM | TGI (UO-31 renal): > 100 µM | TGI (T-47D breast): > 100 µM | TGI (SK-MEL-28 melanoma): > 100 µM | TGI (BT-549 breast): > 100 µM | TGI (NCI/ADR-RES ovarian): > 100 µM | TGI (NCI-H23 lung): > 100 µM | TGI (U251 CNS): > 100 µM | TGI (K-562 leukemia): > 100 µM | TGI (SF-295 CNS): > 100 µM | TGI (HOP-62 NSCLC): > 100 µM | TGI (NCI-H522 lung): > 100 µM | TGI (OVCAR-3 ovarian): > 100 µM | TGI (KM12 colon): > 100 µM | TGI (MDA-N): > 100 µM | TGI (SF-539 CNS): > 100 µM | TGI (MOLT-4 leukemia): > 100 µM | TGI (DU-145 prostate): > 100 µM | TGI (SK-MEL-5 melanoma): > 100 µM | TGI (IGROV1 ovarian): > 100 µM | TGI (MALME-3M melanoma): > 100 µM | TGI (SK-OV-3 ovarian): > 100 µM | TGI (A549 NSCLC): > 100 µM | TGI (A498 renal): > 100 µM | TGI (UACC-257 melanoma): > 100 µM | TGI (HCT-116 colon): > 100 µM | TGI (786-0 renal): > 100 µM | TGI (HOP-92 NSCLC): > 100 µM | TGI (MDA-MB-231 breast): > 100 µM | TGI (SR leukemia): > 100 µM | TGI (HL-60(TB) leukemia): > 100 µM | TGI (NCI-H460 lung): > 100 µM | TGI (SNB-19 CNS): > 100 µM | TGI (CCRF-CEM leukemia): > 100 µM | TGI (HT29 colon): > 100 µM

— PubChem BioAssay (NCI)
